Measurements: patent EP4725941A1, “ARYLAMIDE DERIVATIVE HAVING ANTITUMOR ACTIVITY” (priority 2020, dated 2021)
Read-outs that look alike come from different tables or passages of the source.

Experiments:
MEK1 = target: T1, MEK1 (Homo sapiens, UniProt Q02750); assay: MEK1-inhibiting activity, fluorescent polarization method (CRAF/MEK1/ERK2 cascade, IMAP); assay type: biochemical
T1 construct: purchased Thermo Fisher Scientific Inc. (MEK1, CRAF); Carna Biosciences, Inc. (ERK2)
Description: The MEK1-inhibiting activity of the compounds listed in Table 3 below were evaluated by the fluorescent polarization method as described below.

BRAF = target: T2, BRAF (Homo sapiens, UniProt P15056); assay: BRAF-inhibiting activity, time-resolved fluorescence-fluorescence resonance energy transfer assay; assay type: biochemical
T2 construct: purchased Eurofins Genomics KK; (BRAF); Thermo Fisher Scientific Inc. (MEK1)
T2 sequence (P15056 417-766 limits assumed): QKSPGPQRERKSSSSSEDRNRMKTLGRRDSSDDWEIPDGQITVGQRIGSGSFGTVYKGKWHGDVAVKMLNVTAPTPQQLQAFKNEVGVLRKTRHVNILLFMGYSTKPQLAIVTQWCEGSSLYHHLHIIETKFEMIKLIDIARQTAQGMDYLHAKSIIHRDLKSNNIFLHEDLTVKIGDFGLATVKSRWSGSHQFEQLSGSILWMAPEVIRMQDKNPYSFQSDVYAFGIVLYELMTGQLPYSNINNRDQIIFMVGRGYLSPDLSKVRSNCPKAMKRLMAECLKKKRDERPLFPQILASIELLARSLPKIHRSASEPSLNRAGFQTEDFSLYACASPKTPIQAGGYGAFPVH
Description: The BRAF-inhibiting activity of the compounds listed in Table 3 below was evaluated by the time-resolved fluorescence-fluorescence resonance energy transfer assay as described below.

A549 = assay: Cell proliferation-inhibiting activity (ATP in viable cells, CellTiter-Glo), A549; assay type: cell-based, human; conditions: A549, 96 h, read-out: A549 IC50
Calu-6 = assay: Cell proliferation-inhibiting activity (ATP in viable cells, CellTiter-Glo), Calu-6; assay type: cell-based, human; conditions: Calu-6, 96 h, read-out: Calu-6 IC50
NCI-H2122 = assay: Cell proliferation-inhibiting activity (ATP in viable cells, CellTiter-Glo), NCI-H2122; assay type: cell-based, human; conditions: NCI-H2122, 96 h, read-out: NCI-H2122 IC50
[1] = Human liver microsome stability; assay type: in vitro ADME; conditions: human liver microsomes, pH 7.4
[2] = human lung cancer cells, 4 days

T1 sequence (Q02750 whole entry): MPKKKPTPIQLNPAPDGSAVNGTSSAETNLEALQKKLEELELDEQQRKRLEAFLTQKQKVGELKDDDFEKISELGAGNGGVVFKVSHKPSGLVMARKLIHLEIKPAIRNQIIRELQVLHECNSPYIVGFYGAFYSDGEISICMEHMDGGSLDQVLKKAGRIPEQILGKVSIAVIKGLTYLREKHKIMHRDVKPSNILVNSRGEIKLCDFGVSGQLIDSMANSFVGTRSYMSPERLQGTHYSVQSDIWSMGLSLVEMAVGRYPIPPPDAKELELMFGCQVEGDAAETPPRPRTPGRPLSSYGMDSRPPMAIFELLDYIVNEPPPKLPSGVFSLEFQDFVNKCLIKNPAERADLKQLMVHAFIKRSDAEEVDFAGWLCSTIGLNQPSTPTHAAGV

With CC(C)(C)ONC(=O)c1cc(Cc2cccc(NS(=O)(=O)C3(C)CC3)c2F)c(F)c(F)c1Nc1ccc(I)cc1F [Compound E-6, 3,4-Difluoro-2-(2-fluoro-4-iodoanilino)-5-[[2-fluoro-3-[(1-methylcyclopropyl)sulfonylamino]phenyl]methyl]-N-[(2-methylpropan-2-yl)oxy]be nzamide] as the compound, how does the IC50 (MEK1; Table 3, read-out: MEK1 IC50) read?
The IC50 was 34 nM.

What about the IC50 (BRAF; read-out: BRAF IC50; Table 3) of the same compound?
Its IC50 is 17 nM.

And the IC50 (A549; [2])?
The IC50 was 8 nM.

What about the IC50 (Calu-6; [2]) of the same compound?
The IC50 was 28 nM.

What about the IC50 (NCI-H2122; [2]) of the same compound?
The IC50 was 6 nM.

And the microsomal CLint at 0.99 µM [1]?
Its microsomal CLint at 0.99 µM is 105 µL/min/mg.

For Cn1c(Nc2ccc(I)cc2F)c(C(N)=O)cc(Cc2cccc(NS(=O)(=O)NC3CC3)c2F)c1=O [Compound K-3, 5-[[3-(Cyclopropylsulfamoylamino)-2-fluorophenyl]methyl]-2-(2-fluor o-4-iodoanilino)-1-methyl-6-oxopyridine-3-carboxamide], which IC50 (MEK1; Table 3, read-out: MEK1 IC50) is on record?
Its IC50 is 84 nM.

And the IC50 (BRAF; read-out: BRAF IC50; Table 3)?
Its IC50 is 5 nM.

And the IC50 (A549; [2])?
Its IC50 is 9 nM.

What about the IC50 (Calu-6; [2]) of the same compound?
The IC50 was 31 nM.

What about the IC50 (NCI-H2122; [2]) of the same compound?
Its IC50 is 10 nM.

What about the microsomal CLint at 0.99 µM [1] of the same compound?
Its microsomal CLint at 0.99 µM is 247 µL/min/mg.

Which results are given for COCC1(S(=O)(=O)Nc2cccc(Cc3cc(C(N)=O)c(Nc4ccc(I)cc4F)c(F)c3F)c2F)CC1 [Compound E-19]?
IC50 (MEK1; Table 3, read-out: MEK1 IC50): 332 nM; IC50 (BRAF; read-out: BRAF IC50; Table 3): 34 nM; IC50 (A549; [2]): 9 nM; IC50 (Calu-6; [2]): 87 nM; IC50 (NCI-H2122; [2]): 9 nM; microsomal CLint at 0.99 µM [1]: 115 µL/min/mg

Which IC50 (MEK1; Table 3, read-out: MEK1 IC50) does the source give for Cn1c(Nc2ccc(I)cc2F)c(C(=O)NC2CC2)cc(Cc2ccnc(NS(=O)(=O)NC3CC3)c2F)c1=O [Compound J-6, N-Cyclopropyl-5-[[2-(cyclopropylsulfamoylamino)-3-fluoropyridin-4-yl]methyl]-2-(2-fluoro-4-iodoanilino)-1-methyl-6-oxopyridine-3-carboxamide] here?
Its IC50 is 86 nM.

And the IC50 (BRAF; read-out: BRAF IC50; Table 3)?
Its IC50 is 7 nM.

And the IC50 (A549; [2])?
The IC50 was 14 nM.

And the IC50 (Calu-6; [2])?
Its IC50 is 27 nM.

And the IC50 (NCI-H2122; [2])?
Its IC50 is 7 nM.

And the microsomal CLint at 0.99 µM [1]?
Its microsomal CLint at 0.99 µM is 45 µL/min/mg.

Which results are given for CC(C)(C)ONC(=O)c1cc(Cc2cccc(NS(=O)(=O)NC3CC3)c2F)c(F)c(F)c1Nc1ccc(I)cc1Cl [Compound E-12, 2-(2-Chloro-4-iodoanilino)-5-[[3-(cyclopropylsulfamoylamino)-2-fluor ophenyl]methyl]-3,4-difluoro-N-[(2-methylpropan-2-yl)oxy]benzamide]?
IC50 (MEK1; Table 3, read-out: MEK1 IC50): 260 nM; IC50 (BRAF; read-out: BRAF IC50; Table 3): 17 nM; IC50 (A549; [2]): 3 nM; IC50 (Calu-6; [2]): 8 nM; IC50 (NCI-H2122; [2]): 2 nM; microsomal CLint at 0.99 µM [1]: 160 µL/min/mg

For CNS(=O)(=O)Nc1nccc(Cc2cc(C(=O)N[C@H]3C[C@H]3C)c(Nc3ccc(I)cc3F)c(F)c2F)c1F (racemic) [Compound B-4, 3,4-Difluoro-2-(2-fluoro-4-iodoanilino)-5-[[3-fluoro-2-(methylsulfamoylamino)pyridin-4-yl]methyl]-N-[(1S, 2R)-(+/-)-2-methylcyclopropyl]benzamide (racemate)], which IC50 (MEK1) is on record?
The IC50 was 19 nM.

What about the IC50 (BRAF; Table 3; read-out: BRAF IC50) of the same compound?
Its IC50 is 5 nM.

And the IC50 (A549; [2])?
Its IC50 is 2 nM.

And the IC50 (Calu-6; [2])?
Its IC50 is 6 nM.

What about the IC50 (NCI-H2122; [2]) of the same compound?
Its IC50 is 1 nM.

What about the microsomal CLint at 0.99 µM [1] of the same compound?
The microsomal CLint at 0.99 µM was 28 µL/min/mg.

What does the source list for CC(C)S(=O)(=O)Nc1cccc(Cc2cc(C(N)=O)c(Nc3ccc(I)cc3F)c(F)c2F)c1F [Compound E-24, 3,4-Difluoro-2-(2-fluoro-4-iodoanilino)-5-[[2-fluoro-3-(propan-2-ylsulfonylamino)phenyl]methyl]benzamide]?
IC50 (MEK1; Table 3, read-out: MEK1 IC50): 189 nM; IC50 (BRAF; read-out: BRAF IC50; Table 3): 20 nM; IC50 (A549; [2]): 26 nM; IC50 (Calu-6; [2]): 63 nM; IC50 (NCI-H2122; [2]): 5 nM; microsomal CLint at 0.99 µM [1]: 10 µL/min/mg

Which results are given for CNS(=O)(=O)Nc1nccc(Cc2cc(C(N)=O)c(Nc3ccc(SC(F)F)cc3F)c(F)c2F)c1F [Compound H-1, 2-[4-(difluoromethylsulfanyl)-2-fluoroanilino]-3,4-difluoro-5-[[3-fluoro-2-(methylsulfamoylamino)pyridin-4-yl]methyl]benzamide]?
IC50 (MEK1; Table 3, read-out: MEK1 IC50): 7 nM; IC50 (BRAF; Table 3; read-out: BRAF IC50): 2 nM; IC50 (A549; Homo sapiens): 9 nM; IC50 (Calu-6; Homo sapiens): 21 nM; IC50 (NCI-H2122; Homo sapiens): 5 nM; microsomal CLint at 0.99 µM [1]: 39 µL/min/mg

Which results are given for CNS(=O)(=O)Nc1nccc(Cc2cc(C(N)=O)c(Nc3ccc(C4CC4)cc3F)c(F)c2F)c1F [Compound A-1, 2-(4-cyclopropyl-2-fluoroanilino)-3,4-difluoro-5-[[3-fluoro-2-(methylsulfamoylamino)pyridin-4-yl]methyl]benzamide]?
IC50 (MEK1; Table 3, read-out: MEK1 IC50): 17 nM; IC50 (BRAF; Table 3; read-out: BRAF IC50): 1 nM; IC50 (A549; Homo sapiens): 26 nM; IC50 (Calu-6; Homo sapiens): 64 nM; IC50 (NCI-H2122; Homo sapiens): 5 nM; microsomal CLint at 0.99 µM [1]: 1 µL/min/mg

Which IC50 (MEK1; Table 3, read-out: MEK1 IC50) does the source give for CNS(=O)(=O)Nc1cccc(Oc2cc(F)cc(Nc3ccc(I)cc3F)c2C(N)=O)c1 [Ref-2, 4-Fluoro-2-(2-fluoro-4-iodoanilino)-6-[3-(methylsulfamoylamino)phenoxy]benzamide, reference compound] here?
The IC50 was 364 nM.

What about the IC50 (BRAF; read-out: BRAF IC50; Table 3) of the same compound?
Its IC50 is 12 nM.

What about the IC50 (A549; [2]) of the same compound?
Its IC50 is 8 nM.

And the IC50 (Calu-6; [2])?
Its IC50 is 35 nM.

What about the IC50 (NCI-H2122; [2]) of the same compound?
Its IC50 is 3 nM.

And the microsomal CLint at 0.99 µM [1]?
The microsomal CLint at 0.99 µM was 12 µL/min/mg.

For CCNS(=O)(=O)Nc1nccc(Cc2cc(C(=O)NC3CC3)c(Nc3ccc(I)cc3F)c(F)c2F)c1F [Compound A-4, N-cyclopropyl-5-[[2-(ethylsulfamoylamino)-3-fluoropyridin-4-yl]methyl]-3,4-difluoro-2-(2-fluoro-4-iodoanilino)benzamide], which IC50 (MEK1; Table 3, read-out: MEK1 IC50) is on record?
The IC50 was 17 nM.

What about the IC50 (BRAF; read-out: BRAF IC50; Table 3) of the same compound?
Its IC50 is 2 nM.

What about the IC50 (A549; [2]) of the same compound?
Its IC50 is 5 nM.

And the IC50 (Calu-6; [2])?
The IC50 was 7 nM.

What about the IC50 (NCI-H2122; [2]) of the same compound?
Its IC50 is 1 nM.

And the microsomal CLint at 0.99 µM [1]?
The microsomal CLint at 0.99 µM was 21 µL/min/mg.

What does the source list for CC(C)CNS(=O)(=O)Nc1nccc(Cc2cc(C(N)=O)c(Nc3ccc(I)cc3F)c(F)c2F)c1F [Compound A-34, 3,4-difluoro-2-(2-fluoro-4-iodoanilino)-5-[[3-fluoro-2-(2-methylpropylsulfamoylamino)pyridin-4-yl]methyl]benzamide]?
IC50 (MEK1; Table 3, read-out: MEK1 IC50): 81 nM; IC50 (BRAF; read-out: BRAF IC50; Table 3): 3 nM; IC50 (A549; [2]): 27 nM; IC50 (Calu-6; [2]): 79 nM; IC50 (NCI-H2122; [2]): 12 nM; microsomal CLint at 0.99 µM [1]: 17 µL/min/mg

With CNS(=O)(=O)Nc1nccc(Cc2cc(C(=O)NOC)c(Nc3ccc(I)cc3F)c(F)c2F)c1F [Compound A-13, 3,4-difluoro-2-(2-fluoro-4-iodoanilino)-5-[[3-fluoro-2-(methylsulfamoylamino)pyridin-4-yl]methyl]-N-methoxybenzamide] as the compound, how does the IC50 (MEK1; Table 3, read-out: MEK1 IC50) read?
Its IC50 is 1 nM.

And the IC50 (BRAF; read-out: BRAF IC50; Table 3)?
Its IC50 is 3 nM.

And the IC50 (A549; [2])?
Its IC50 is 1 nM.

And the IC50 (Calu-6; [2])?
Its IC50 is 3 nM.

What about the IC50 (NCI-H2122; [2]) of the same compound?
The IC50 was 0.3 nM.

And the microsomal CLint at 0.99 µM [1]?
The microsomal CLint at 0.99 µM was 31 µL/min/mg.

Which IC50 (MEK1; Table 3, read-out: MEK1 IC50) does the source give for Cn1c(Nc2ccc(I)cc2F)c(C(=O)NC2CC2)cc(Cc2cccc(NS(=O)(=O)C3(C)CC3)c2F)c1=O [Compound K-11, N-Cyclopropyl-2-(2-fluoro-4-iodoanilino)-5-[[2-fluoro-3-[(1-methylcyclopropyl)sulfonylamino]phenyl]methyl]-I-methyl-6-oxopyridine-3-carb oxamide] here?
Its IC50 is 278 nM.

And the IC50 (BRAF; read-out: BRAF IC50; Table 3)?
The IC50 was 15 nM.

And the IC50 (A549; [2])?
The IC50 was 93 nM.

What about the IC50 (Calu-6; [2]) of the same compound?
The IC50 was 230 nM.

What about the IC50 (NCI-H2122; [2]) of the same compound?
The IC50 was 85 nM.

And the microsomal CLint at 0.99 µM [1]?
The microsomal CLint at 0.99 µM was 437 µL/min/mg.

Which results are given for Cn1c(Nc2ccc(I)cc2F)c(C(=O)NOC(C)(C)C)cc(Cc2ccnc(NS(=O)(=O)NC3CC3)c2F)c1=O [Compound J-11, 5-[[2-(Cyclopropylsulfamoylamino)-3-fluoropyridin-4-yl]methyl]-2-(2-fluoro-4-iodoanilino)-1-methyl-N-[(2-methylpropan-2-yl)oxy]-6-oxopyr idine-3-carboxamide]?
IC50 (MEK1; Table 3, read-out: MEK1 IC50): 48 nM; IC50 (BRAF; read-out: BRAF IC50; Table 3): 17 nM; IC50 (A549; [2]): 13 nM; IC50 (Calu-6; [2]): 27 nM; IC50 (NCI-H2122; [2]): 6 nM; microsomal CLint at 0.99 µM [1]: 47 µL/min/mg

Which results are given for NC(=O)c1c(Nc2ccc(I)cc2F)cncc1Oc1cccc(NS(=O)(=O)C2CC2)c1 [Ref-4, reference compound]?
IC50 (MEK1; Table 3, read-out: MEK1 IC50): 11 nM; IC50 (A549; [2]): 2 nM; IC50 (Calu-6; [2]): 18 nM; IC50 (NCI-H2122; [2]): 2 nM; microsomal CLint at 0.99 µM [1]: 32 µL/min/mg
